Experimental data taken from ChEMBL document CHEMBL1150383, “Synthesis and pharmacological evaluation of peptide-mimetic protease-activated receptor-1 antagonists containing novel heterocyclic scaffolds” (Bioorg Med Chem, 2008).
Active and inactive are the calls of the source. The rule behind the calls is not given here.

Experiments:
[1] = biological target: T1, Proteinase-activated receptor 1 (Homo sapiens) (UniProt P25116); assay: Antagonist activity at PAR1 receptor assessed as inhibition of PAR1AP-induced platelet aggregation in human blood after 10 mins by chronolog dual channel aggregometry; type: functional
T1 sequence (whole entry): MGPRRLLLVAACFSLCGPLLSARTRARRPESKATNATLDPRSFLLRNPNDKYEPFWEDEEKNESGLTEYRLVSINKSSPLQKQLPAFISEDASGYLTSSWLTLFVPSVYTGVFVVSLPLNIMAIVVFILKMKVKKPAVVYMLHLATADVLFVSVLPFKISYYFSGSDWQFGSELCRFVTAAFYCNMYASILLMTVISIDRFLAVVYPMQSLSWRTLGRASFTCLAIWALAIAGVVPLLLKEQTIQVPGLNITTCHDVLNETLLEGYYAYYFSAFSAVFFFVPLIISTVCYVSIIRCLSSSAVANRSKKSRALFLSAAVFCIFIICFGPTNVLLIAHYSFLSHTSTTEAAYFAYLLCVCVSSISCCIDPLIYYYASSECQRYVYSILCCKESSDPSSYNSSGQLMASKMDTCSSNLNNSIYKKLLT

[2] = biological target: T2, Proteinase-activated receptor 1 (Rattus norvegicus) (UniProt P26824); assay: Antagonist activity at PAR1 receptor assessed as reduction of PAR1AP-induced aortic ring contraction in Wistar rat at 10 to 100 uM after 15 mins; type: functional
T2 sequence (whole entry): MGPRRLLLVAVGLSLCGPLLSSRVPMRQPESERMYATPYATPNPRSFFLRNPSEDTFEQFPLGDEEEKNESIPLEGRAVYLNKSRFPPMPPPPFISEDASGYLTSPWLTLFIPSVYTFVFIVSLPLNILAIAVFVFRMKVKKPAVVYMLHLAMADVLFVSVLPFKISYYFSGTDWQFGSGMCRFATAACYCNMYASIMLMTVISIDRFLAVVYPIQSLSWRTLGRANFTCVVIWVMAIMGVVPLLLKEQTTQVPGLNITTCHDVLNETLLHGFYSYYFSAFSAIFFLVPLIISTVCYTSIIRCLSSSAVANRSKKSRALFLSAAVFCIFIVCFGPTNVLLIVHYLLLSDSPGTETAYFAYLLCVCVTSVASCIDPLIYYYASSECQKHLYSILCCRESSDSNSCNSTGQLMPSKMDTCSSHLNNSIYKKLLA

SMILES | Activity [1] | Activity [2] | IC75 [1]
COc1ccc(C[C@H](NC(=O)Nc2ccc3c(c2)c(CN2CCCC2)c(C)n3Cc2c(Cl)cccc2Cl)C(=O)N[C@@H](CCCNC(=N)N)C(=O)NCc2ccccc2)cc1 | inactive | inactive | 
COc1ccc(C[C@H](NC(=O)Nc2ccc3c(CN4CCCC4)cn(Cc4c(Cl)cccc4Cl)c3c2)C(=O)N[C@@H](CCCNC(=N)N)C(=O)NCc2ccccc2)cc1 |  | 94 dyn/mg | 100 nM
Cc1c(CN2CCCC2)c2ccc(NC(=O)N[C@@H](Cc3ccc(F)c(F)c3)C(=O)N[C@@H](CCCNC(=N)N)C(=O)NCc3ccccc3)cc2n1Cc1c(Cl)cccc1Cl |  | 31 dyn/mg | 50 nM
COc1ccc(C[C@H](NC(=O)Nc2ccc3c(CN4CCCC4)c(C)n(Cc4c(Cl)cccc4Cl)c3c2)C(=O)N[C@@H](CCCNC(=N)N)C(=O)NCc2ccccc2)cc1 |  | Active | 20 nM
Cc1c(CN2CCCC2)c2cc(NC(=O)N[C@@H](Cc3ccc(F)c(F)c3)C(=O)N[C@@H](CCCNC(=N)N)C(=O)NCc3ccccc3)ccc2n1Cc1c(Cl)cccc1Cl | inactive | inactive | 
Cc1c(CN2CCCC2)c2cc(NC(=O)N[C@@H](Cc3cccc4ccccc34)C(=O)N[C@@H](CCCNC(=N)N)C(=O)NCc3ccccc3)ccc2n1Cc1c(Cl)cccc1Cl | inactive | inactive | 
Cc1c(CN2CCCC2)c2ccc(NC(=O)N[C@@H](Cc3ccc4ccccc4c3)C(=O)N[C@@H](CCCNC(=N)N)C(=O)NCc3ccccc3)cc2n1Cc1c(Cl)cccc1Cl |  | Active | 800 nM
Cc1c(CN2CCCC2)c2cc(NC(=O)N[C@@H](Cc3ccc4ccccc4c3)C(=O)N[C@@H](CCCNC(=N)N)C(=O)NCc3ccccc3)ccc2n1Cc1c(Cl)cccc1Cl | inactive | inactive | 
